The results in this text go back to patent US10155743B2, “Glutarimide derivatives, use thereof, pharmaceutical composition based thereon and methods for producing glutarimide derivatives” (OBSCHESTVO S OGRANICHENNOI OTVETSTVENNOSTIYU …, priority 2013, dated 2018).

The test system of test [1] is mucous membrane of nasal passages, formalin-induced acute rhinosinusitis. Briefly: Acute rhinosinusitis rat model (induced by intranasal 7.5% formalin solution). As to conditions: rats; for The number of caliciform cells within 1 mm of the mucous membrane of the nasal septum: tested compounds 27 mg/kg for 7 days after induction, M ± m; for Macroscopic changes in the mucous membrane of nasal passages: Muculent or mucopurulent catarrh (number of animals) / Macroscopic changes in the mucous membrane of nasal passages: Without changes (number of animals): tested compounds 27 mg/kg for 7 days, count out of n of the group. The test is classed as in vivo, Wistar rats. The protocol:
Morphological studies of histologic preparations were conducted with a Leica DMLS light-optical microscope (Leica Microsystems, Germany). Micro-morphometric assessment was performed by using an ocular micrometer on a Leica DMLB microscope.
Acute rhinosinusitis was induced by intranasal administration of 20 μl of 7.5% formalin solution (aqueous solution comprising 40% formaldehyde, 8% methyl alcohol, and 52% water) to each nasal passage of rats.
Administration of formalin to rat nasal passages leads to the dissemination of inflammation to adjacent tissues, resulting in a clinical pattern similar to the symptoms of rhinosinusitis in a human.
After an acclimatization period, the following groups were formed: • intact animals administered intragastrically a saline solution in an amount of 0.2 ml, the induction of acute rhinosinusitis was not performed; • a control group consisted of the animals administered intragastrically a saline solution in an amount of 0.2 ml for 7 days after induction of acute rhinosinusitis; • animals administered intramuscularly dexamethasone at a dose of 0.33 mg/kg for 7 days after induction of acute rhinosinusitis; and • animals administered the tested compounds at a dose of 27 mg/kg for 7 days after induction of acute rhinosinusitis.
Clinical observation of each animal was performed every day at least twice daily.
In the experiment with Wistar rats, the induction of acute rhinosinusitis by administration of a 7.5% formalin solution to nasal passages caused in the control group of animals pronounced pathological changes characterizing the development of an acute inflammation process in the nasal mucous. The caused pathology was characterized by congestion, hyperplasia, focal necrosis of the nasal meatus mucous membrane, an increased number of caliciform cells, pronounced infiltration by mononuclear cells and leucocytes, and mucus hyperproduction by submucosal glands.
The mucous and submucous membranes of both nasal passages (respiratory and olfactory regions) of the experimental animals were subjected to a morphological analysis to evaluate a specific activity of the compounds.
For microscopic examination, the sections were stained with hematoxylin and eosin. Detection of acid mukopolysaccharides, the production of which is increased in an inflammation, was performed by histochemical staining of the preparation with Alcian Blue (pH 2.5). The comparison and histological evaluation of changes were performed versus the group of intact rats.
After slaughter, the gross appearance of inflammation in the nasal passages was studied in each animal. Histological, hystochemical and morphological studies of rats were intended to evaluate the following characteristics of nasal passages: congestion of the mucous membrane; hyperplasia and necrosis of nasal epithelium, the number of caliciform cells within 1 mm of the mucous membrane of the nasal septum, and the character of inflammation.
In this study, the efficiency of the mucociliary system was evaluated by the number of caliciform cells and, as a consequence, microscopic changes in the mucous membrane of the nasal passages.

Test [2] relates to influenza virus strain A/California/07/09 (H1N1) pdm09. Kind of test: animal or person. In kind it is in vivo, white outbred female mice. The conditions noted are these: unidentified influenza virus, H1N1, in Mus musculus, po, 336 h, read-out: Mortality rate, %.
Test [3] concerns human respiratory syncytial virus (strain A2, ATCC VR-1540). The test is classed as in vivo. The conditions noted are these: Balb/c mice, cyclophosphan 100 mg/kg 5 days before infection; 30 mg/kg once daily for 5 days from 24 h; score from possible 4; M ± SD, n = 5.
Test [4] deals with hRV strain (GKV reg. No. 2730). Kind of test: Antiviral activity against rhinovirus in mice (body weight, lung weight, infectious titer in lungs). In kind it is in vivo. As to conditions: for Body weight of the mice after infection with hRV, day 0: 30 mg/kg orally once daily for 5 days starting 12 hours after infection; for Body weight of the mice after infection with hRV, day 1 / Body weight of the mice after infection with hRV, day 2 / Lung weight of the mice after infection with hRV, day 2 / Body weight of the mice after infection with hRV, day 3 / Lung weight of the mice after infection with hRV, day 3 / Body weight of the mice after infection with hRV, day 4 / Lung weight of the mice after infection with hRV, day 4: 30 mg/kg orally once daily; for Body weight of the mice after infection with hRV, day 1: day 1 after infection; for Body weight of the mice after infection with hRV, day 2 / Lung weight of the mice after infection with hRV, day 2: day 2 after infection; for Body weight of the mice after infection with hRV, day 3 / Lung weight of the mice after infection with hRV, day 3: day 3 after infection; for Body weight of the mice after infection with hRV, day 4 / Lung weight of the mice after infection with hRV, day 4: day 4 after infection; for Suppression of the reproduction of the virus in mouse lungs, Δ lg, Day 2 after infection / Suppression of the reproduction of the virus in mouse lungs, Δ lg, Day 3 after infection / Suppression of the reproduction of the virus in mouse lungs, Δ lg, Day 4 after infection / Infectious titer of the virus in lungs, lg TCID50, Day 2 after infection / Infectious titer of the virus in lungs, lg TCID50, Day 3 after infection / Infectious titer of the virus in lungs, lg TCID50, Day 4 after infection: 30 mg/kg orally; for Suppression of the reproduction of the virus in mouse lungs, Δ lg, Day 2 after infection / Suppression of the reproduction of the virus in mouse lungs, Δ lg, Day 3 after infection / Suppression of the reproduction of the virus in mouse lungs, Δ lg, Day 4 after infection: difference control minus experimental group; for Infectious titer of the virus in lungs, lg TCID50, Day 2 after infection / Infectious titer of the virus in lungs, lg TCID50, Day 3 after infection / Infectious titer of the virus in lungs, lg TCID50, Day 4 after infection: lung suspension titrated in Hela cell culture.

Take `O=C1CCCC(=O)N1CCc1cnc[nH]1` [Compound 1, 1-(2-(1H-imidazol-4-yl)ethyl)piperidine-2,6-dione]: in test [1], the “The number of caliciform cells within 1 mm of the mucous membrane of the nasal septum” value (shortened to “The number”) is listed as 31.2 ± 1.2, the “Macroscopic changes in the mucous membrane of nasal passages: Muculent or mucopurulent catarrh (number of animals)” value is reported as 13 and the “Macroscopic changes in the mucous membrane of nasal passages: Without changes (number of animals)” value came to 5. For the same molecule, the mortality at 30 mg/kg in test [2] worked out at 35%. In addition, in test [3], the “Degree of pulmonary edema on day 5 after infection, score” value (from here on “Degree of pulmonary edema”) is reported as 1.3 ± 0.27 score. In test [4], the “Body weight of the mice after infection with hRV, day 0” value is 7.36 ± 0.97; the “Body weight of the mice after infection with hRV, day 1” value came to 8.2 ± 4.25; the “Body weight of the mice after infection with hRV, day 2” value is 13.03 ± 3.51; the “Lung weight of the mice after infection with hRV, day 2” value was found to be 136.9 ± 5.93. In test [4], the “Body weight of the mice after infection with hRV, day 3” value is given as 13.47 ± 1.36; the “Lung weight of the mice after infection with hRV, day 3” value is on record as 140.8 ± 5.14; the “Body weight of the mice after infection with hRV, day 4” value was found to be 13.99 ± 1.53; the “Lung weight of the mice after infection with hRV, day 4” value is listed as 128.2 ± 5.81. Also, in test [4], the “Suppression of the reproduction of the virus in mouse lungs, Δ lg, Day 2 after infection” value is 1.1 ± 0.49 Δ lg; the “Suppression of the reproduction of the virus in mouse lungs, Δ lg, Day 3 after infection” value is 1.7 ± 0.31 Δ lg; the “Suppression of the reproduction of the virus in mouse lungs, Δ lg, Day 4 after infection” value is listed as 2.18 ± 0.08 Δ lg; the “Infectious titer of the virus in lungs, lg TCID50, Day 2 after infection” value turned out to be 2.9 ± 0.49 lg TCID50. In test [4], the “Infectious titer of the virus in lungs, lg TCID50, Day 3 after infection” value is listed as 0.8 ± 0.31 lg TCID50 and the “Infectious titer of the virus in lungs, lg TCID50, Day 4 after infection” value is reported as 0.03 ± 0.08 lg TCID50.
On to `CC1(C)CC(=O)N(CCc2cnc[nH]2)C(=O)C1` [Compound 3], for which, in test [1], the “The number” value turned out to be 35.8 ± 0.9, the “Macroscopic changes in the mucous membrane of nasal passages: Muculent or mucopurulent catarrh (number of animals)” value turned out to be 7 and the “Macroscopic changes in the mucous membrane of nasal passages: Without changes (number of animals)” value amounted to 5. Besides, the “Degree of pulmonary edema” value in test [3] amounted to 1.6 ± 0.89 score.
In the case of `O=C1CCCC(=O)N1CCC1CCCN1` (stereo not shown) [Compound 4], the mortality at 30 mg/kg in test [2] worked out at 65%. In test [3], the “Degree of pulmonary edema” value was 1.95 ± 0.31 score. In test [4], the “Body weight of the mice after infection with hRV, day 0” value came to 7.77 ± 1.02; the “Body weight of the mice after infection with hRV, day 1” value turned out to be 7.27 ± 1.27; the “Body weight of the mice after infection with hRV, day 2” value is 12.66 ± 2.32; the “Lung weight of the mice after infection with hRV, day 2” value amounted to 142 ± 4.81. In addition, in test [4], the “Body weight of the mice after infection with hRV, day 3” value is 13.14 ± 1.5; the “Lung weight of the mice after infection with hRV, day 3” value is 135.9 ± 4.18; the “Body weight of the mice after infection with hRV, day 4” value is recorded as 13.23 ± 1.38; the “Lung weight of the mice after infection with hRV, day 4” value was 134.2 ± 3.68. Besides, in test [4], the “Suppression of the reproduction of the virus in mouse lungs, Δ lg, Day 2 after infection” value is given as 1.65 ± 0.65 Δ lg; the “Suppression of the reproduction of the virus in mouse lungs, Δ lg, Day 3 after infection” value is on record as 1.9 ± 0.27 Δ lg; the “Suppression of the reproduction of the virus in mouse lungs, Δ lg, Day 4 after infection” value is 2.2 ± 4.68 Δ lg; the “Infectious titer of the virus in lungs, lg TCID50, Day 2 after infection” value is 2.35 ± 0.65 lg TCID50. Further, in test [4], the “Infectious titer of the virus in lungs, lg TCID50, Day 3 after infection” value was found to be 0.6 ± 0.27 lg TCID50 and the “Infectious titer of the virus in lungs, lg TCID50, Day 4 after infection” value came out at 0 ± 0 lg TCID50.
On to `Cn1cnc(CCN2C(=O)CCCC2=O)c1` [Compound 5], for which the mortality at 30 mg/kg in test [2] turned out to be 45%. Further, the “Degree of pulmonary edema” value in test [3] came to 1.10 ± 0.19 score.
Turning to `O=C1CCCC(=O)N1CCc1nccs1` [Compound 6], in test [1], the “The number” value is 36.5 ± 0.8, the “Macroscopic changes in the mucous membrane of nasal passages: Muculent or mucopurulent catarrh (number of animals)” value is given as 4 and the “Macroscopic changes in the mucous membrane of nasal passages: Without changes (number of animals)” value came out at 2. For the same molecule, the “Degree of pulmonary edema” value in test [3] is recorded as 0.90 ± 0.22 score.
Take `O=C1CCCC(=O)N1CCc1ccncc1` [Compound 9]: in test [3], the “Degree of pulmonary edema” value is listed as 1.00 ± 0.17 score.
Turning to `CC1(C)CCC(=O)N(CCc2c[nH]cn2)C1=O` [Compound 20], in test [1], the “Macroscopic changes in the mucous membrane of nasal passages: Muculent or mucopurulent catarrh (number of animals)” value amounted to 4 and the “Macroscopic changes in the mucous membrane of nasal passages: Without changes (number of animals)” value was found to be 4. In addition, in test [2], the mortality at 30 mg/kg stood at 50%.
In the case of `O=C1CCCC(=O)N1CCC1CCNC1` (stereo not shown) [Compound 120], the “Degree of pulmonary edema” value in test [3] worked out at 1.05 ± 0.14 score.
On the same count and under the same terms, as for `O=C1CCCC(=O)N1CCC1CCCNC1` (stereo not shown) [Compound 121], the figure is 0.90 ± 0.21 score; as for `O=C1CCCC(=O)N1CCC1CCNCC1` [Compound 123], 1.30 ± 0.17 score.

Broadly, the mortality is the share of the test organisms that died.
